For 12 compounds, IC50 results are on record in ChEMBL document CHEMBL2346538, “Synthesis, cyclooxygenase inhibitory effects, and molecular modeling study of 4-aryl-5-(4-(methylsulfonyl)phenyl)-2-alkylthio and -2-alkylsulfonyl-1H-imidazole derivatives” (Bioorg Med Chem, 2013).

In general, IC50 refers to the concentration needed to halve the response being measured.

The target in this test is T1, Prostaglandin G/H synthase 2 (Homo sapiens, UniProt P35354).
T1 sequence (P35354 whole entry): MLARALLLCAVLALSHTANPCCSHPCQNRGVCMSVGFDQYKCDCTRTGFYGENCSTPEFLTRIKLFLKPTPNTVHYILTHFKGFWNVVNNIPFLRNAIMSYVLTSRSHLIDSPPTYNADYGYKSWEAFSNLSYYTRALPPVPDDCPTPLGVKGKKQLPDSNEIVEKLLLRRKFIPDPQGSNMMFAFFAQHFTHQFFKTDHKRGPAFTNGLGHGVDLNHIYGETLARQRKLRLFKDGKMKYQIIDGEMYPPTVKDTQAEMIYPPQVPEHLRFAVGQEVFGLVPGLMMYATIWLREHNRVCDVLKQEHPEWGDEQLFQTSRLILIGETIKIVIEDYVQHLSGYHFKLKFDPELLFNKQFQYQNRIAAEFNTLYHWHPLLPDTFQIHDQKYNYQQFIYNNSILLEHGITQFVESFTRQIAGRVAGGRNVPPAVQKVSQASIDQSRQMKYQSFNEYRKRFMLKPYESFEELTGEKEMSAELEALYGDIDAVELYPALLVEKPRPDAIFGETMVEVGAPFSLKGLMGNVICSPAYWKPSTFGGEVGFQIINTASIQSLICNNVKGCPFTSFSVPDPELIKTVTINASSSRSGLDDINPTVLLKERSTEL
As to the kind of experiment: Inhibition of COX2 in human blood assessed as TxB2 level after 1 hr by enzyme immunoassay.
With `CS(=O)(=O)c1ccc(-c2[nH]c(S(C)(=O)=O)nc2-c2ccc(F)cc2)cc1`, the IC50 was 280 nM. For `CSc1nc(-c2ccc(F)cc2)c(-c2ccc(S(C)(=O)=O)cc2)[nH]1`, the IC50 was found to be 70 nM. On to `CSc1nc(-c2ccc(Cl)cc2)c(-c2ccc(S(C)(=O)=O)cc2)[nH]1`, for which the IC50 is 100 nM.

Regarding `CS(=O)(=O)c1ccc(-c2[nH]c(S(C)(=O)=O)nc2-c2ccccc2)cc1`, the half-maximal inhibitory concentration (IC50) is 280 nM.

For `CS(=O)(=O)c1ccc(-c2[nH]c(S(C)(=O)=O)nc2-c2ccc(Cl)cc2)cc1`, the 50% inhibitory concentration (IC50) was 310 nM. For the compound `CCSc1nc(-c2ccccc2)c(-c2ccc(S(C)(=O)=O)cc2)[nH]1`, the IC50 was 50 nM. In the case of `CCSc1nc(-c2ccc(F)cc2)c(-c2ccc(S(C)(=O)=O)cc2)[nH]1`, the IC50 stood at 80 nM. Regarding `CCSc1nc(-c2ccc(Cl)cc2)c(-c2ccc(S(C)(=O)=O)cc2)[nH]1`, the 50% inhibitory concentration (IC50) amounted to 110 nM. `CCS(=O)(=O)c1nc(-c2ccccc2)c(-c2ccc(S(C)(=O)=O)cc2)[nH]1`: the IC50 was 240 nM. As to `CCS(=O)(=O)c1nc(-c2ccc(F)cc2)c(-c2ccc(S(C)(=O)=O)cc2)[nH]1`, the IC50 turned out to be 310 nM. Turning to `CCS(=O)(=O)c1nc(-c2ccc(Cl)cc2)c(-c2ccc(S(C)(=O)=O)cc2)[nH]1`, the half-maximal inhibitory concentration (IC50) was 320 nM. On to `CSc1nc(-c2ccccc2)c(-c2ccc(S(C)(=O)=O)cc2)[nH]1`, for which the IC50 turned out to be 60 nM.
